Measurements: US12187624B2, “Method of acylating amino acids and uses of N-acyl amino acid products” (NewSouth Innovations Pty Limited, priority 2019, dated 2025)
Several values for one entry are separate records, joined by “and”; a condition that tells them apart may be missing. Identical values can stand only once.

Assays:
[1] = Foaming test of surfactant solutions at different pH; format: physicochemical; settings: Csurfactant = 0.01M; solutions at pH 3, 6, 9, 12 (FIG. 6)
Description: FIG. 6 is a pair of photos from the foaming test described in Example 2; the first photo (upper) is a photo of N-octanoyl cysteine solutions at: pH 3 (far left), pH 6 (middle left), pH 9 (middle right) and pH 12 (far right) and the second photo (lower) is a photo of N-octyl cysteine solutions at: pH 3 (far left), pH 6 (middle left), pH 9 (middle right) and pH 12 (far right). (Csurfactant=0.01M and the pH adjusted with […]).

[2] = cited from earlier work
[3] = Ion flotation of calcium solution in air bubble column, ICP-MS analysis
Procedure: (§1) In a model experiment, 0.01M of the N-octanoyl-cys surfactant was dissolved (with heating around 65° C. while stirring) in a 5 mg L^−1 solution (i.e. 5 ppm) of Cd containing 0.1 M NaOH and finally made up to 100 ml using Milli-Q water, with the pH of around 8.
(§2) The solution was then poured into a column (with 30 cm height and 3 cm diameter) while a 2 L/min flow of air gas was passed through it with air pump (Hiblow HP40, Philippines). Two samples were taken after each of 30 and 60 minutes from around 2 cm top of the sinter, and the Cd concentrations of each sample was determined by ICP-MS analysis. The upper-outlet foam was also collected in a waste container using an outlet tube.
In the second series of ion flotation experiments, N-octanoyl-cys surfactant (obtained by Exemplary method 1) was used for removing calcium ions using air in the ion flotation process.

[4] = Critical micelle concentration (CMC) from conductivity versus surfactant concentration; format: physicochemical
Procedure: The CMC of N-octanoyl-cys prepared by this method was determined to be 0.1M. The CMC was determined using a Bench-Top water quality meter, SPER SCIENTIFIC Instrument model 860033 to measure the conductivity and pH of the surfactant solution. The CMC value of the surfactant was measured by plotting conductivity values versus different surfactant concentrations at pH 9 by adding NaOH solution (0.1 mol L^−1) and 25.0° C. The CMC was obtained as the point of sharp transition in the slope of conductivity with increasing surfactant concentration (data not shown).
The CMC of the N-octanoyl-cys surfactant prepared by Exemplary method 1, in Na^+ form at pH 8, was determined (as reported above for Comparative method 1 above from measurements of the electrical conductivity with surfactant concentration) to be about 0.09 mol/L, see FIG. 3.
The same protocols as described above were used to determine the CMC and melting point of the twice-recrystallised N-octyl-cysteine surfactant. The values measured were 0.1M and 145° C., respectively. These values are consistent with literature values.

[5] = Ion flotation of Cd solution in air bubble column, ICP-MS analysis; settings: Csurfactant = 0.01M
Procedure: as §1, §2
The same procedure was used with the N-octyl-cys surfactant in the flotation experiment, but where the pH of the solution was increased to 12, to enable this surfactant to successfully produce a foam (this difference is discussed later).

[6] = pH 12, Ccalcium = 5 mg L^−1, Csurfactant = 0.01M, air bubbles

Compound: CCCCCCCC(=O)N[C@@H](CS)C(=O)O [N-octanoyl-cys, N-octanoyl-cysteine]
- pH at which the surfactant starts foaming (foaming point) [1]: ~6
- pKa of the amide group (protonation) [2]: around −0.5
- Adsorption (%) After 60 min ([3]; pH 8, Ccalcium = 5 mg L^−1, Csurfactant = 0.01M): 97% and 97.3%
- C(mg L^−1) (RSD %) After 30 min ([3]; pH 8, Ccalcium = 5 mg L^−1, Csurfactant = 0.01M, air bubbles): 0.72 (42.02) mg L^−1
- CMC ([4]; N-octanoyl-cys prepared by Comparative method 1, pH 9 (NaOH), 25.0° C.): 0.1 M
- CMC ([4]; prepared by Exemplary method 1, in Na+ form at pH 8): about 0.09 mol/L
- Adsorption (%) After 60 min ([5]; operating pH 8, 5 mg L^−1 Cd, listed as N-octanoyl-cys (Comparative method 1)): 99.2%
- Adsorption (%) After 60 min ([5]; operating pH 8, 5 mg L^−1 Cd, listed as N-octanoyl-cys (Exemplary method 1)): 99.8%
- Adsorption (%) After 60 min ([5]; operating pH 12, 5 mg L^−1 Cd): 12.3%

Compound: CCCCCCCCN[C@@H](CS)C(=O)O [N-octyl-cys, N-octyl-cysteine]
- pH at which the surfactant starts foaming (foaming point) [1]: > 12
- pKa of the amine group (protonation) [2]: about 10.7
- Adsorption (%) After 60 min ([3]; pH 12, Ccalcium = 5 mg L^−1, Csurfactant = 0.01M): 14% and 14.6%
- C(mg L^−1) (RSD %) After 30 min [3, 6]: 4.89 (0.87) mg L^−1
- C(mg L^−1) (RSD %) After 60 min [3, 6]: 4.27 (3.31) mg L^−1
- Adsorption (%) After 60 min ([5]; operating pH 12, 5 mg L^−1 Cd): 14.2%

Compound: N-octyl-cysteine [reference compound]
- CMC ([4]; twice-recrystallised surfactant, same protocols as for N-octanoyl-cys): 0.1 M
